Measured values reported in patent US20220354949A1, “NOVEL COMPOUNDS” (XENIOPRO GmbH, priority 2018, published 2022).

Legend:
Format in all cases: cell-based
[1] = tested on: MDA-MB-231 cells (human breast carcinoma cells); assay: Proliferation assay (alamarBlue) with MDA-MB-231 cells; settings: Homo sapiens, compound at 20 μM, Table 69 (novel compounds), read-out: Activity Range: weighted arithmetic mean (AVEw) of normalized fluorescence intensity relative to DMSO basis level 1.0
From the text: (§1) The antiproliferative activities of compounds falling under formula (Ia), (Ib) and (Ic), respectively, were investigated on cells or cell lines originating from a disorder of the haematopoietic system, including the myeloid cell compartment and the lymphoid cell compartment (T-cells and B-cells), the neuroendocrine system, the cervix, the breast, the ovaries, the lung, the gastrointestinal tract, and the mucosal epithelium, as well as from the skin epithelium and from the muscle. To this end, HL-60 cells, NB-4 cells, HH cells, RPMI-8402 cells, TANOUE cells, TT cells, HeLa cells, MDA-MB-231 cells, FU-OV-1 cells, LOU-NH91 cells, 23132/87 cells, CAL-27 cells, BHY cells, SCC-25 cells, A-431 cells, human primary epidermal keratinocytes (HPEK), and C2C12 cells were seeded into 96-well plates suitable for fluorescence assays (CORNING #3598) at following initial cell numbers: 1000 cells per well for HL-60; 1000 cells per well for NB-4; 5000 cells per well for HH; 5000 cells per well for RPMI-8402; 1500 cells per well for TANOUE; 9000 cells per well for TT; 2000 cells per well for HeLa; 3000 cells per well for MDA-MB-231; 3000 cells per well for FU-OV-1; 4000 cells per well for LOU-NH91; 2000 cells per well for 23132/87; 2000 cells per well for CAL-27; 1500 cells per well for BHY; 1500 cells per well for SCC-25; 700 cells per well for A-431; 1000 cells per well for HPEK; 500 cells per well for C2C12. The cells were treated with compounds at indicated final concentrations (diluted from the 1000× stock-solutions in DMSO to a final DMSO concentration of 0.1% v/v in H2O (Water For Injection, WFI, Fisherscientific #10378939)) or with the empty carrier DMSO at 0.1% v/v as control for 5 days. At day 5 after starting the treatments the cells were subjected to the alamarBlue® Proliferation Assay (Bio-Rad Serotec GmbH, BUF012B) according to the protocol of the manufacturer. The readout was taken with a multi-well plate-reader in the fluorescence mode with applying a filter for excitation at 560 nm (band width 10 nm) and for emission at 590 nm (band width 10 nm). Control treatments for growth inhibition with commercial compounds such as Methotrexate (MTREX) and Resveratrol (RES) were included on every plate. Some of the test compounds of the present invention were obtained and applied as their salts. According cases are indicated in the column “Specification” in Table 55 to Table 92 and by their sum formula in Table 93.
(§2) The assays were performed in duplicate or more replicates of independent single experiments each containing a six-fold replicate for every condition. For every individual plate, the measured fluorescence intensity values of the conditions with compound treatment were normalized against the corresponding equally weighted arithmetic mean of the fluorescence intensity values of the six DMSO treated control wells in order to obtain the relative values to a baseline level of 1.0.
(§3) Two independent outlier analyses were performed according to the methods by Peirce and Chauvenet (Ross, Journal of Engineering Technology 2003, 1-12). Outliers confirmed by at least one of the methods were excluded from the calculations but not more than one value out of six per compound within a single experiment. The weighted arithmetic mean (here abbreviated as AVEw) for each compound was calculated from the normalized values over all independent replicates of the single experiments comprising the six replicates each. The corresponding standard deviation for the weighted arithmetic mean was calculated according to the method described by Bronstein et al. (Bronstein, Semendjajew, Musiol, Müihlig, Taschenbuch der Mathematik, 5th edition 2001 (German), publisher: Verlag Harri Deutsch, Frankfurt am Main and Thun) and was combined with the Gauß' error propagation associated with the performed calculation for the normalization. The resulting standard deviation is herein referred to as “combined standard deviation”. […]

[2] = tested on: TANOUE cells (human B cell leukemia cells); assay: Proliferation assay (alamarBlue) with TANOUE cells; settings: Homo sapiens, B-cell, compound at 20 μM, Table 63 (novel compounds), read-out: Activity Range: weighted arithmetic mean (AVEw) of normalized fluorescence intensity relative to DMSO basis level 1.0
From the text: as §1, §2, §3

[3] = tested on: Notch signaling (human Notch1 receptor, hNotch1ΔE, CSL luciferase reporter in HeLa cells); assay: Notch reporter assay (dual luciferase, HeLa cells transfected with hNotch1ΔE); settings: compounds and controls at 10 μM
From the text: The activation level of Notch signaling can be quantified in vitro reliably by measuring the expression levels of Notch specific target genes. This can be accomplished by the quantification of corresponding mRNA or protein of a particular Notch target gene. Alternatively, cells can be genetically modified to carry a luciferase gene as an artificial Notch target gene, which is expressed in dependence of Notch activity. In this setting, Notch signaling levels can be quantified by measuring the luciferase-derived bioluminescence values.
An according Notch-reporter assay, i.e. a luciferase-based luminescence readout, was used here to quantify the ability of the claimed compounds to augment Notch signaling in a cellular system. […] After 24 hours of transfection, the transfected cells were carefully detached from the dish using 0.5 mM EDTA in PBS and seeded into 96-well plates suitable for luminescence readouts (CORNING, #3610) at 10′000 cells per well. […] Directly after the lysis, first the Firefly and then the Renilla luciferase values were measured consecutively from the same well with a luminescence reader immediately after applying 15 μL per well each of the corresponding enzyme substrates needed to create the luminescence signals (Promega, Dual-Luciferase® Reporter Assay System, #E1910). […]

[4] = tested on: HH cells (human cutaneous T-cell lymphoma cells); assay: Proliferation assay (alamarBlue) with HH cells; settings: 20 μM, relative to DMSO basis level 1.0, Table 60 (compounds disclosed in PCT/EP2018/054686)
From the text: as §1, §2, §3

Row | Structure (SMILES) | activity at 20 µM [1] [%] | activity at 20 µM [2] [%] | Activity Range: weighted arithmetic mean (AVEw) of double-normalized Notch-reporter luminescence, relative to DMSO basis level of 1.0 [3] | Activity Range: weighted arithmetic mean (AVEw) of normalized fluorescence intensity, proliferation assay with HH cells [4]
1 | COCCc1ccc(Oc2ccc(C(=O)N(C)O)cc2)cc1 [XPW-0675, N-hydroxy-4-(4-(2-methoxyethyl)phenoxy)-N-methylbenzamide] | 40 to 60 | 40 to 60 | – | –
2 | O=C(c1ccc(Oc2ccc(C3CCCCC3)cc2)nc1)N1CCOCC1 [XPW-2890, (6-(4-cyclohexylphenoxy)pyridin-3-yl)(morpholino)methanone] | 40 to 60 | 70 to 80 | – | –
3 | CN(C(c1ccc(Oc2ccc(C34CC5CC(CC(C5)C3)C4)cc2)cc1)C(F)(F)F)[S+]([O-])C(C)(C)C (stereo not shown) [XPW-4642, N-(1-(4-(4-((3r,5r,7r)-adamantan-1-yl)phenoxy)phenyl)-2,2,2-trifluoroethyl)-N,2-dimethylpropane-2-sulfinamide] | 60 to 70 | – | – | –
4 | CN(O)C(c1ccc(Oc2ccc(C34CC5CC(CC(C5)C3)C4)cc2)cc1)C(F)(F)F (stereo not shown) [XPW-0182, N-(1-(4-(4-((3r,5r,7r)-adamantan-1-yl)phenoxy)phenyl)-2,2,2-trifluoroethyl)-N-methyl hydroxylamine] | 40 to 60 | 40 to 60 | – | –
5 | CN(C)C(C#N)c1ccc(Oc2ccc(C3CCCCC3)cc2)cc1 (stereo not shown) [XPW-0314, 2-(4-(4-cyclohexylphenoxy)phenyl)-2-(dimethylamino)acetonitrile] | – | 40 to 60 | 2.0 ≤ AVEw | –
6 | NS(=O)(=O)C#Cc1ccccc1 [PES] | – | – | – | 0.6 ± 0.1
7 | CN(C)C(c1ccc(Oc2ccc(C34CC5CC(CC(C5)C3)C4)cc2)cc1)C(F)(F)F (stereo not shown) [XPW-0042, 1-(4-(4-((3r,5r,7r)-adamantan-1-yl)phenoxy)phenyl)-2,2,2-trifluoro-N,N-dimethylethan-1-amine] | 80 to 90 | 80 to 90 | – | –
8 | C[C@H](NC(=O)Cc1cc(F)cc(F)c1)C(=O)N[C@H](C(=O)OC(C)(C)C)c1ccccc1 [DAPT] | – | – | 0.1 ± 0.0 | –
9 | NC1(c2ccc(Oc3ccc(C45CC6CC(CC(C6)C4)C5)cc3)nc2)COC1 [XPW-3052] | 60 to 70 | 70 to 80 | – | –
10 | CC(C)(C)[S+]([O-])NC(c1ccc(Oc2ccc(C34CC5CC(CC(C5)C3)C4)cc2)cc1)C(F)(F)F (stereo not shown) [XPW-0902, N-(1-(4-(4-((3r,5r,7r)-adamantan-1-yl)phenoxy)phenyl)-2,2,2-trifluoroethyl)-2-methylpropane-2-sulfinamide] | 0 to 20 | 0 to 20 | – | –
11 | N#CN=C(N)c1ccc(Oc2ccc(C3CCCCC3)cc2)nc1 [XPW-0832, N′-cyano-6-(4-cyclohexylphenoxy)nicotinimidamide] | 70 to 80 | 70 to 80 | – | –
